Assay results reported in PubChem BioAssay (NCI).
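A five-concentration, 48-hour dose response in 96-well plates underlies each endpoint, interpolated linearly between surrounding concentrations. The concentration for full growth arrest is given as TGI.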

Experiments:
Experiment in all cases: DTP human tumour cell line panel, 48 h
[1] = test system: 786-0 renal
[2] = test system: A549 NSCLC
[3] = test system: ACHN renal
[4] = test system: BT-549 breast
[5] = test system: CAKI-1 renal
[6] = test system: CCRF-CEM leukemia
[7] = test system: COLO 205 colon
[8] = test system: DU-145 prostate
[9] = test system: EKVX NSCLC
[10] = test system: HCC-2998 colon
[11] = test system: HCT-116 colon
[12] = test system: HCT-15 colon
[13] = test system: HL-60(TB) leukemia
[14] = test system: HOP-62 NSCLC
[15] = test system: HS 578T breast
[16] = test system: HT29 colon
[17] = test system: IGROV1 ovarian
[18] = test system: K-562 leukemia
[19] = test system: KM12 colon
[20] = test system: M14 melanoma
[21] = test system: MALME-3M melanoma
[22] = test system: MCF7 breast
[23] = test system: MDA-MB-231 breast
[24] = test system: MDA-MB-435
[25] = test system: MOLT-4 leukemia
[26] = test system: NCI-H226 lung
[27] = test system: NCI-H23 lung
[28] = test system: NCI-H460 lung
[29] = test system: NCI-H522 lung
[30] = test system: NCI/ADR-RES ovarian
[31] = test system: OVCAR-3 ovarian
[32] = test system: OVCAR-4 ovarian
[33] = test system: OVCAR-5 ovarian
[34] = test system: OVCAR-8 ovarian
[35] = test system: PC-3 prostate
[36] = test system: RPMI-8226 leukemia
[37] = test system: RXF 393 renal
[38] = test system: SF-268 CNS
[39] = test system: SF-295 CNS
[40] = test system: SK-MEL-2 melanoma
[41] = test system: SK-MEL-28 melanoma
[42] = test system: SK-MEL-5 melanoma
[43] = test system: SK-OV-3 ovarian
[44] = test system: SN12C renal
[45] = test system: SNB-19 CNS
[46] = test system: SNB-75 CNS
[47] = test system: SW-620 colon
[48] = test system: T-47D breast
[49] = test system: TK-10 renal
[50] = test system: U251 CNS
[51] = test system: UACC-257 melanoma
[52] = test system: UACC-62 melanoma
[53] = test system: UO-31 renal

Measured: TGI

c1ccc(-c2cn3nc(N4CCOCC4)sc3n2)cc1
> 100 µM: all assays above
